Assay results from patent US9284297B2, “Halofuginone analogs for inhibition of tRNA synthetases and uses thereof” (President and Fellows of Harvard College, priority 2008, dated 2016).

Columns and labels:
[1] = molecular target: T1, Prolyl-tRNA synthetase (EPRS) purified from rabbit liver (Oryctolagus cuniculus, UniProt G1T2I4); assay: Purified EPRS, 14C-labeled proline incorporation into tRNA; format: biochemical; details: 10 μM, 4 μM, 1 μM HF
T1 construct: Prolyl-tRNA synthetase (EPRS) purified from rabbit liver; from tissue; host or cells: rabbit liver
T1 sequence (G1T2I4 1-1447): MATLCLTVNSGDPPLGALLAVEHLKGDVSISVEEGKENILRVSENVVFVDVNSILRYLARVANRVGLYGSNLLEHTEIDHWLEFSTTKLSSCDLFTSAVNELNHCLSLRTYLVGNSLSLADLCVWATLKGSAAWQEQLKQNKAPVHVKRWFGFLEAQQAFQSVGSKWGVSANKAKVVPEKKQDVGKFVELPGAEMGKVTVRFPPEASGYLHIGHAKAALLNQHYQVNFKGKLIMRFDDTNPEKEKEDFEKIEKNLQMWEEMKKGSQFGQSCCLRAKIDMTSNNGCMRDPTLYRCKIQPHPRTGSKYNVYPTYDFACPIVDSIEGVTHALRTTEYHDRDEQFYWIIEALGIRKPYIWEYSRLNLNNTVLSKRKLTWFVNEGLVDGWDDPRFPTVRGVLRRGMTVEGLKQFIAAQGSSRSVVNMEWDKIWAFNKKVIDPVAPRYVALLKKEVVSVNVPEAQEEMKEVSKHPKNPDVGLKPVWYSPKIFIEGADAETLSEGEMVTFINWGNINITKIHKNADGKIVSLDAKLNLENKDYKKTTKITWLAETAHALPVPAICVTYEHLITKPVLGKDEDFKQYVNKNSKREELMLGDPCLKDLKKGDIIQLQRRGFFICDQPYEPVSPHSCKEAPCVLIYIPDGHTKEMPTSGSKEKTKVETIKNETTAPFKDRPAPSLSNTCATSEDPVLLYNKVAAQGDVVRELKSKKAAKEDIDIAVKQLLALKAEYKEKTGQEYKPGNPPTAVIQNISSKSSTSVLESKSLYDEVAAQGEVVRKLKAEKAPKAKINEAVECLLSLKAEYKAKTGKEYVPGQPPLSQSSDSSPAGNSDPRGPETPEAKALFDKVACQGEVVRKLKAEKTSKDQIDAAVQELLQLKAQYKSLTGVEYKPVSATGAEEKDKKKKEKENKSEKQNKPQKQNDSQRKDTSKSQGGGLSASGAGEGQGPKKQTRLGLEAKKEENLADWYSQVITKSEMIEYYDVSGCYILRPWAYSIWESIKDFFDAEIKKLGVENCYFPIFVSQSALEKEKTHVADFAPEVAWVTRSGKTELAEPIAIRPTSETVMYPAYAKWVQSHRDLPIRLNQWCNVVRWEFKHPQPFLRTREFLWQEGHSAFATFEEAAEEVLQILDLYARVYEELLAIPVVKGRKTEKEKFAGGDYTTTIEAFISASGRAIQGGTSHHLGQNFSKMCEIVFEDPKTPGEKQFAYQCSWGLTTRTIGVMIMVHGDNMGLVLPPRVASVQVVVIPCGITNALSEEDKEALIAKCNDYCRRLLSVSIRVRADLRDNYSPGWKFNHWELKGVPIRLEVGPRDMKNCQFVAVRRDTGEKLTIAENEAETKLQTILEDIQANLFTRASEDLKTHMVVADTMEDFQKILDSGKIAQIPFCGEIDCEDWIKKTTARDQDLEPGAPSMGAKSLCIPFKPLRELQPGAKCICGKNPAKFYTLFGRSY
Protocol: Purified enzyme was incubated with 100 μg/ml bovine tRNA, 50 μM ^14C-labeled proline, 5 mM ATP, and 10 mM MgCl2 for 20 minutes. Charged tRNA was isolated by precipitation on Whatman filter paper and washing with cold 5% TCA. TCA precipitable counts were assayed by scintillation counting.

[2] = system: human CD4+ T cells (CD4+ CD45RO+); assay: IL-17 and IFNγ expression by human memory CD4+ T cells co-cultured with monocytes; format: cell-based; details: 100 nM HF; expanded for 6 days
Protocol: FIG. 5F is a set of FACS analyses of purified primary human memory T cells (CD4^+ CD45RO^+) activated in co-culture with CD14^+ monocytes and treated with DMSO, 100 nM HF or 100 nM MAZ1310. T cells were expanded for 6 days and intracellular cytokine expression was determined following restimulation with PMA plus ionomycin.
In light of reports that IL-17 expression may be differentially regulated in murine versus human T cells (Manel et al., Nat. Immunol. 9:641, 2008; Wilson et al., Nat. Immunol. 8:950, 2007; Acosta-Rodriguez et al., Nat. Immunol. 8:942, 2007), HF modulation of IL-17 expression by human CD4^+ T cells was investigated. […] Therefore, HF selectively limits IL-17 expression in both human and mouse T cells.
Primary murine T and B cells were purified by cell sorting. CD4^+ CD25^− T cells were positively selected using CD4 dynabeads and detachabeads (Dynal, Oslo, Norway) per manufacturers instructions followed by nTreg depletion using a CD25 microbead kit (Miltenyi biotech, Auburn, Calif.). Naïve (CD4^+ CD62Lhi CD44lo Foxp3gfp- or CD4^+ CD62Lhi CD44lo CD25^−) T cells were purified from Foxp3gfp or Foxp3ko mice, respectively, by FACS sorting. […] Resting human CD4^+ T cells were isolated from PBMC of healthy human donors using Dynal CD4 Positive Isolation Kit (Invitrogen, Carlsbad, Calif.) as previously described (Sundrud et al., Blood 106:3440, 2005). […]

[3] = molecular target: T2, prolyl-tRNA synthetase (EPRS) (Oryctolagus cuniculus, UniProt G1T2I4); assay: Incorporation of 14C-labeled proline into tRNA in rabbit reticulocyte lysate; format: biochemical; details: crude in vitro translation system
T2 construct: from tissue; host or cells: rabbit reticulocyte lysate
T2 sequence (G1T2I4 1-1447): T1 sequence (G1T2I4 1-1447)
Protocol: Total RNA was extracted with acidic phenol-chloroform and tRNA was isolated using miRVANA microRNA isolation kit. Radioisotope incorporation into tRNA was measured in a scintillation counter.

`O=C(CC1NCCCC1O)Cn1cnc2cc(Br)c(Cl)cc2c1=O` (stereo not shown) [Compound 1, 7-bromo-6-chloro-3-[3-(3-hydroxy-2-piperidinyl)-2-oxopropyl]-4(3H)-quinazolinone] was tested, and the “inhibition of purified EPRS (TCA precipitable counts)” value [1] was “directly inhibits purified mammalian EPRS”, the “IFNγ expression by human T cells” value [2] was “essentially unaffected” and the “IL-17 expression by human T cells” value [2] was “greatly reduced both the percentage of human T cells expressing IL-17 and the amount of IL-17 produced”. For the same compound, the “inhibition of 14C proline incorporation into tRNA” value [3] was “inhibitor of prolyl-tRNA synthetase (EPRS)”.
